Reference: PubChem BioAssay (NCI)
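Values below derive from 48-hour exposures of cells grown in 96-well plates, with endpoints linearly interpolated between the two concentrations bracketing the appropriate inhibition level. TGI marks complete inhibition of growth.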

Assays:
Test in all cases: NCI-60 cell line screen, 48 h
[1] = tested on: HS 578T breast
[2] = tested on: 786-0 renal
[3] = tested on: SK-MEL-5 melanoma
[4] = tested on: BT-549 breast
[5] = tested on: A498 renal
[6] = tested on: CCRF-CEM leukemia
[7] = tested on: ACHN renal
[8] = tested on: HT29 colon
[9] = tested on: NCI-H460 lung
[10] = tested on: NCI-H226 lung
[11] = tested on: M14 melanoma
[12] = tested on: OVCAR-4 ovarian
[13] = tested on: UACC-62 melanoma
[14] = tested on: T-47D breast
[15] = tested on: U251 CNS
[16] = tested on: RXF 393 renal
[17] = tested on: SF-268 CNS
[18] = tested on: K-562 leukemia
[19] = tested on: NCI-H23 lung
[20] = tested on: MCF7 breast
[21] = tested on: IGROV1 ovarian
[22] = tested on: LOX IMVI melanoma
[23] = tested on: SW-620 colon
[24] = tested on: KM12 colon
[25] = tested on: HOP-62 NSCLC
[26] = tested on: MOLT-4 leukemia
[27] = tested on: HCT-116 colon
[28] = tested on: NCI-H522 lung
[29] = tested on: NCI/ADR-RES ovarian
[30] = tested on: SF-295 CNS
[31] = tested on: CAKI-1 renal
[32] = tested on: RPMI-8226 leukemia
[33] = tested on: HCT-15 colon
[34] = tested on: A549 NSCLC
[35] = tested on: OVCAR-3 ovarian
[36] = tested on: TK-10 renal
[37] = tested on: SNB-19 CNS
[38] = tested on: UO-31 renal
[39] = tested on: HOP-92 NSCLC
[40] = tested on: SK-MEL-28 melanoma
[41] = tested on: HCC-2998 colon
[42] = tested on: SN12C renal
[43] = tested on: SR leukemia
[44] = tested on: MDA-MB-231 breast
[45] = tested on: MALME-3M melanoma
[46] = tested on: MDA-MB-435
[47] = tested on: UACC-257 melanoma
[48] = tested on: SNB-75 CNS
[49] = tested on: EKVX NSCLC
[50] = tested on: DU-145 prostate
[51] = tested on: MDA-N
[52] = tested on: OVCAR-8 ovarian
[53] = tested on: HL-60(TB) leukemia
[54] = tested on: PC-3 prostate
[55] = tested on: OVCAR-5 ovarian
[56] = tested on: SK-MEL-2 melanoma
[57] = tested on: SK-OV-3 ovarian
[58] = tested on: COLO 205 colon
[59] = tested on: SF-539 CNS

## CO[C@H]1O[C@@H]2CO[C@@H](c3ccccc3)O[C@H]2[C@@H]2CC=CCC[C@]12O
[1]
  TGI: 18.2 µM
[2]
  TGI: > 100 µM
[3]
  TGI: > 100 µM
[4]
  TGI: 69 µM
[5]
  TGI: 92.7 µM
[6]
  TGI: > 100 µM
[7]
  TGI: > 100 µM
[8]
  TGI: > 100 µM
[9]
  TGI: > 100 µM
[10]
  TGI: > 100 µM
[11]
  TGI: > 100 µM
[12]
  TGI: > 100 µM
[13]
  TGI: > 100 µM
[14]
  TGI: > 100 µM
[15]
  TGI: > 100 µM
[16]
  TGI: > 100 µM
[17]
  TGI: 51 µM
[18]
  TGI: > 100 µM
[19]
  TGI: > 100 µM
[20]
  TGI: > 100 µM
[21]
  TGI: > 100 µM
[22]
  TGI: > 100 µM
[23]
  TGI: > 100 µM
[24]
  TGI: > 100 µM
[25]
  TGI: > 100 µM
[26]
  TGI: 73.3 µM
[27]
  TGI: > 100 µM
[28]
  TGI: 31 µM
[29]
  TGI: > 100 µM
[30]
  TGI: > 100 µM
[31]
  TGI: > 100 µM
[32]
  TGI: 90.1 µM
[33]
  TGI: > 100 µM
[34]
  TGI: > 100 µM
[35]
  TGI: > 100 µM
[36]
  TGI: > 100 µM
[37]
  TGI: > 100 µM
[38]
  TGI: > 100 µM
[39]
  TGI: > 100 µM
[40]
  TGI: > 100 µM
[41]
  TGI: 51.7 µM
[42]
  TGI: > 100 µM
[43]
  TGI: > 100 µM
[44]
  TGI: > 100 µM
[45]
  TGI: 29.3 µM
[46]
  TGI: > 100 µM
[47]
  TGI: > 100 µM
[48]
  TGI: > 100 µM
[49]
  TGI: > 100 µM
[50]
  TGI: > 100 µM
[51]
  TGI: > 100 µM
[52]
  TGI: > 100 µM
[53]
  TGI: 67 µM
[54]
  TGI: > 100 µM
[55]
  TGI: > 100 µM
[56]
  TGI: > 100 µM
[57]
  TGI: > 100 µM
[58]
  TGI: > 100 µM

## COc1ccc(N)c(C(O)CCNC(C)=O)c1 (configuration not stated)
[1]
  TGI: > 100 µM
[2]
  TGI: > 100 µM
[3]
  TGI: > 100 µM
[4]
  TGI: > 100 µM
[5]
  TGI: > 100 µM
[6]
  TGI: > 100 µM
[7]
  TGI: > 100 µM
[8]
  TGI: > 100 µM
[9]
  TGI: > 100 µM
[10]
  TGI: > 100 µM
[11]
  TGI: > 100 µM
[12]
  TGI: > 100 µM
[13]
  TGI: > 100 µM
[14]
  TGI: > 100 µM
[15]
  TGI: > 100 µM
[16]
  TGI: > 100 µM
[17]
  TGI: > 100 µM
[19]
  TGI: > 100 µM
[20]
  TGI: > 100 µM
[21]
  TGI: > 100 µM
[22]
  TGI: > 100 µM
[23]
  TGI: > 100 µM
[24]
  TGI: > 100 µM
[26]
  TGI: > 100 µM
[27]
  TGI: > 100 µM
[28]
  TGI: > 100 µM
[59]
  TGI: > 100 µM
[29]
  TGI: > 100 µM
[30]
  TGI: > 100 µM
[31]
  TGI: > 100 µM
[32]
  TGI: > 100 µM
[33]
  TGI: > 100 µM
[34]
  TGI: > 100 µM
[35]
  TGI: > 100 µM
[36]
  TGI: > 100 µM
[37]
  TGI: > 100 µM
[38]
  TGI: > 100 µM
[39]
  TGI: > 100 µM
[42]
  TGI: > 100 µM
[43]
  TGI: > 100 µM
[44]
  TGI: > 100 µM
[46]
  TGI: > 100 µM
[47]
  TGI: > 100 µM
[48]
  TGI: > 100 µM
[49]
  TGI: > 100 µM
[50]
  TGI: > 100 µM
[51]
  TGI: > 100 µM
[52]
  TGI: > 100 µM
[53]
  TGI: > 100 µM
[54]
  TGI: > 100 µM
[55]
  TGI: > 100 µM
[56]
  TGI: > 100 µM
[57]
  TGI: > 100 µM
[58]
  TGI: > 100 µM
